What all share (assay type): biochemical
Assay [1] addresses T1, Lck (Homo sapiens, UniProt P06239).
T1 construct: Kinases are expressed as either kinase domains or full length constructs; made in house
Put plainly: Kinase inhibition assay (33P transfer), Lck. To be noted: Table 3, class symbols; read-out: Lck-1. In a few lines:
(§1)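 Filterless plate radiometric format: immobilized poly(Glu,Tyr) 4:1 or poly(Arg,Ser) 3:1, 33P-labelled ATP, tagged recombinant kinase (some with regulatory partners). Incorporated label counted after phosphoric acid wash.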

Assay [2] has as its target T2, Zap-70 (Homo sapiens, UniProt P43403).
T2 construct: Kinases are expressed as either kinase domains or full length constructs; made in house
T2 sequence (P43403 1-619): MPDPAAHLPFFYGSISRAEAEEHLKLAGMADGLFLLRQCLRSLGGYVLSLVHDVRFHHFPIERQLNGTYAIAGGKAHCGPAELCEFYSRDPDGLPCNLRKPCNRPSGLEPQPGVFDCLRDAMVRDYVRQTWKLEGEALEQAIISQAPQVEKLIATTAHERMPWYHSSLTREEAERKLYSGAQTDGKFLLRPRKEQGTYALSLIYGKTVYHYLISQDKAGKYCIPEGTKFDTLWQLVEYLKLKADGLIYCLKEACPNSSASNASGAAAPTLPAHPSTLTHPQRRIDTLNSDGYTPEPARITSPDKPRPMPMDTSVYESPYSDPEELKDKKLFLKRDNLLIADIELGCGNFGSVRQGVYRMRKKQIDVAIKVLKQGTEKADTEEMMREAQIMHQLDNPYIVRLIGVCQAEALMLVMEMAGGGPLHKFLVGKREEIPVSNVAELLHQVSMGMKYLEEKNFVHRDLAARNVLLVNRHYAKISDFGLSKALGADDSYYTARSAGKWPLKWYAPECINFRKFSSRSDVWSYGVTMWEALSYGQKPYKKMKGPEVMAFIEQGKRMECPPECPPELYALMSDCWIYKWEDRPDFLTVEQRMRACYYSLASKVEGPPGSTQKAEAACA
Put plainly: Kinase inhibition assay (33P transfer), Zap-70. The settings on record: Table 3, class symbols; read-out: Zap-1. A digest of the protocol:
as §1

The target of assay [3] is T3, Itk (Homo sapiens, UniProt Q08881).
T3 construct: Kinases are expressed as either kinase domains or full length constructs; made in house
T3 sequence (Q08881 1-620): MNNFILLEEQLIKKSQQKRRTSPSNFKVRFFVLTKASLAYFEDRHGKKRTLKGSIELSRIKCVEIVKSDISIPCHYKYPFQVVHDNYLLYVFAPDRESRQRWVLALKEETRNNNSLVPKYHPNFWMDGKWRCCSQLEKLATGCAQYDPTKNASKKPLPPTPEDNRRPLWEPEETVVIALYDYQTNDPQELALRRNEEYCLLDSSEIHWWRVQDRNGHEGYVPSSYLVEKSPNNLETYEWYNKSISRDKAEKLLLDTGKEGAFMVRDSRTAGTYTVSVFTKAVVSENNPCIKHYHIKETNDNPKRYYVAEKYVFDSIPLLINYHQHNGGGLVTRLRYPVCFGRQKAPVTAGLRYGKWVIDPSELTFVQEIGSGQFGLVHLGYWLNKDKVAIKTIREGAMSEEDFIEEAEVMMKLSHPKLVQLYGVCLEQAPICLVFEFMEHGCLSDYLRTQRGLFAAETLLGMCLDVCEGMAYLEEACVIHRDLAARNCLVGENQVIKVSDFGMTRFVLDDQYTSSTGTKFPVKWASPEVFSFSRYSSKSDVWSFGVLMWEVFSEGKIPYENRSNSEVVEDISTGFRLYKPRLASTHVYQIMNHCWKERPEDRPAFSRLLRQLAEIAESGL
Description: Kinase inhibition assay (33P transfer), Itk. The settings on record: Table 3, class symbols; read-out: Itk-1. In a few lines:
(§2)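 Using immobilised substrate copolymers (poly(Glu,Tyr) 4:1; poly(Arg,Ser) 3:1) and [33P]ATP, purified fusion kinases were allowed to react; plates were then rinsed in 0.5% phosphoric acid and counted in a scintillation detector. Half-maximal inhibition of label transfer defines IC50.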

Assay [4] concerns the target T4, EGFR (Homo sapiens, UniProt P00533).
T4 construct: Kinases are expressed as either kinase domains or full length constructs; made in house
Put plainly: Kinase inhibition assay (33P transfer), EGFR. The settings on record: Table 2, class symbols A-E; read-out: EGFR-1. A digest of the protocol: as §2

For assay [5], the target named is T5, ErbB2 (Homo sapiens, UniProt P04626).
T5 construct: Kinases are expressed as either kinase domains or full length constructs; made in house
Description: Kinase inhibition assay (33P transfer), ErbB2. The settings on record: read-out: ErbB2-2. In a few lines: as §2

Assay [6] addresses T6, Kdr (Homo sapiens, UniProt P35968).
T6 construct: Kinases are expressed as either kinase domains or full length constructs; made in house
Description: Kinase inhibition assay (33P transfer), Kdr. The settings on record: Table 3, class symbols; read-out: KDR-1. A digest of the protocol:
as §1

Assay [7] concerns the target T7, c-Met (Homo sapiens, UniProt P08581).
T7 construct: Kinases are expressed as either kinase domains or full length constructs; made in house
Put plainly: Kinase inhibition assay (33P transfer), c-Met. To be noted: Table 2, class symbols A-E; read-out: Met-1. In a few lines: as §2

Assay [8] concerns the target T8, AKT (Homo sapiens, UniProt Q9Y243).
T8 construct: Kinases are expressed as either kinase domains or full length constructs; made in house
Description: Kinase inhibition assay (33P transfer), AKT. The settings on record: Table 2, class symbols A-E; read-out: AKT3-1. A digest of the protocol: as §1

Assay [9] concerns the target T9, IGFR-1 (Homo sapiens, UniProt P08069).
T9 construct: Kinases are expressed as either kinase domains or full length constructs; made in house
Put plainly: Kinase inhibition assay (33P transfer), IGFR-1. To be noted: Table 2, class symbols A-E.

In assay [10] the target is T10, PDGFRB (Homo sapiens, UniProt P09619).
T10 construct: Kinases are expressed as either kinase domains or full length constructs; made in house
Put plainly: Kinase inhibition assay (33P transfer), PDGFRB. The settings on record: read-out: PDGFRB-1.

Each structure is given as a SMILES string. pIC50: −log10 of the molar value.

T9 sequence (P08069 31-1367): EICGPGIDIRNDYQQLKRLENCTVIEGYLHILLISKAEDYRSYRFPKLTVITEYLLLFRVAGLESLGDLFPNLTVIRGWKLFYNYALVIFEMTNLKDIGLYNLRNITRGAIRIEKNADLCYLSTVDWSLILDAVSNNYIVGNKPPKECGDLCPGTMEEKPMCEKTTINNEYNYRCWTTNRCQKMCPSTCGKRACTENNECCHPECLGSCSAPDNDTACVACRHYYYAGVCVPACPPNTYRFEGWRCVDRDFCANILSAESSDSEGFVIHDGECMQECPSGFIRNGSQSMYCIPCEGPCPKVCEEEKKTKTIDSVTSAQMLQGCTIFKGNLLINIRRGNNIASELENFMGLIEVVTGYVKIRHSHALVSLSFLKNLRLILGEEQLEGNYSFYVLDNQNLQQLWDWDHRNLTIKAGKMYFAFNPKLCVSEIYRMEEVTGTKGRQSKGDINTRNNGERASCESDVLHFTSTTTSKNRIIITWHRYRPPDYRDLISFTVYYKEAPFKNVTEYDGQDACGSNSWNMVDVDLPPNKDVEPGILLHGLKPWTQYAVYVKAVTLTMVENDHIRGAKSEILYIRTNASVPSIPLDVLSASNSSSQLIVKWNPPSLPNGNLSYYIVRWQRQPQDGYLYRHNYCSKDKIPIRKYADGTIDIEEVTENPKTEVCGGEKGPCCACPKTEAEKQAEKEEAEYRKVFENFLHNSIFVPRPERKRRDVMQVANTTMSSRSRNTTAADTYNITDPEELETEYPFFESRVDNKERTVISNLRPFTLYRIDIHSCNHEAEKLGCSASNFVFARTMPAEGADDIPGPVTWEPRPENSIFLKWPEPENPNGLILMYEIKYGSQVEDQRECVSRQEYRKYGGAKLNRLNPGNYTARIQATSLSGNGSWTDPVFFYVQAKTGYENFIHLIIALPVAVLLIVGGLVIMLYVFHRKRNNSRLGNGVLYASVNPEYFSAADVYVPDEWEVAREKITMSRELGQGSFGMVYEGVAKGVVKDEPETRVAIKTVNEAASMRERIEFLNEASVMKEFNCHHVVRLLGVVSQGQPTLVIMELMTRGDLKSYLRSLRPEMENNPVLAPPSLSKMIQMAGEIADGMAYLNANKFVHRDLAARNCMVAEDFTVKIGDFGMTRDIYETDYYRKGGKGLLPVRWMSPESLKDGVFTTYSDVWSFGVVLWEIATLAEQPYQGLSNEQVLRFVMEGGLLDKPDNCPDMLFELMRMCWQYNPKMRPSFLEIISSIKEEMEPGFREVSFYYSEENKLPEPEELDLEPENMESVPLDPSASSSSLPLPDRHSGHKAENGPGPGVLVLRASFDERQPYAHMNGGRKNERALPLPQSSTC
T10 sequence (P09619 33-1106, species assumed): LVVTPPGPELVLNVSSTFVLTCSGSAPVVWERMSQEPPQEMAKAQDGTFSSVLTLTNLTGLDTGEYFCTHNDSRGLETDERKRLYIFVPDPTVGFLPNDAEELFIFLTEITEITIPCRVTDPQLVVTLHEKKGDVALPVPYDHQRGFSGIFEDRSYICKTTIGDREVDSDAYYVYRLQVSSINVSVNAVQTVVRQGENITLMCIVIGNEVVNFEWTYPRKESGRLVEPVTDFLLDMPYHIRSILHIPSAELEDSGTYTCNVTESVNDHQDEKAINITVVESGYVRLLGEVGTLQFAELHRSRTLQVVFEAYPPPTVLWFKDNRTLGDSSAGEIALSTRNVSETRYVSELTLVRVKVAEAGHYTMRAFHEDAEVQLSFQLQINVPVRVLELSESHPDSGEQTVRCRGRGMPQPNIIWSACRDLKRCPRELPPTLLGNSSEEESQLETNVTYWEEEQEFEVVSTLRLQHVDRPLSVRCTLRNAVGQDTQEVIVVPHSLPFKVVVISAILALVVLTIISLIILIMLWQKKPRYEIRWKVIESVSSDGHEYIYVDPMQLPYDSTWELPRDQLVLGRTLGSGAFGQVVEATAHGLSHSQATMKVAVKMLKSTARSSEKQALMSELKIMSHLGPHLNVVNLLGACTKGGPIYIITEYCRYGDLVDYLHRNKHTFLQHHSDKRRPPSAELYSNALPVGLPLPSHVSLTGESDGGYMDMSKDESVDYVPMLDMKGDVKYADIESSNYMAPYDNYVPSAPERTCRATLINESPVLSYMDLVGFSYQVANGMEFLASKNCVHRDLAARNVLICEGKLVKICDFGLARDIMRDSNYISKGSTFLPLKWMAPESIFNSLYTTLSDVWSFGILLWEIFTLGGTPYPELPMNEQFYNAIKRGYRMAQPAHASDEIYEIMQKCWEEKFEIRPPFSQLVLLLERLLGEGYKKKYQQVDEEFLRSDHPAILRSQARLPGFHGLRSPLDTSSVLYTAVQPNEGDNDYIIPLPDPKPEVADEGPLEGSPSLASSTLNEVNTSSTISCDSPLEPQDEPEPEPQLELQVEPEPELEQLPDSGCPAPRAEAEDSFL
T6 sequence (P35968 20-1356, species assumed): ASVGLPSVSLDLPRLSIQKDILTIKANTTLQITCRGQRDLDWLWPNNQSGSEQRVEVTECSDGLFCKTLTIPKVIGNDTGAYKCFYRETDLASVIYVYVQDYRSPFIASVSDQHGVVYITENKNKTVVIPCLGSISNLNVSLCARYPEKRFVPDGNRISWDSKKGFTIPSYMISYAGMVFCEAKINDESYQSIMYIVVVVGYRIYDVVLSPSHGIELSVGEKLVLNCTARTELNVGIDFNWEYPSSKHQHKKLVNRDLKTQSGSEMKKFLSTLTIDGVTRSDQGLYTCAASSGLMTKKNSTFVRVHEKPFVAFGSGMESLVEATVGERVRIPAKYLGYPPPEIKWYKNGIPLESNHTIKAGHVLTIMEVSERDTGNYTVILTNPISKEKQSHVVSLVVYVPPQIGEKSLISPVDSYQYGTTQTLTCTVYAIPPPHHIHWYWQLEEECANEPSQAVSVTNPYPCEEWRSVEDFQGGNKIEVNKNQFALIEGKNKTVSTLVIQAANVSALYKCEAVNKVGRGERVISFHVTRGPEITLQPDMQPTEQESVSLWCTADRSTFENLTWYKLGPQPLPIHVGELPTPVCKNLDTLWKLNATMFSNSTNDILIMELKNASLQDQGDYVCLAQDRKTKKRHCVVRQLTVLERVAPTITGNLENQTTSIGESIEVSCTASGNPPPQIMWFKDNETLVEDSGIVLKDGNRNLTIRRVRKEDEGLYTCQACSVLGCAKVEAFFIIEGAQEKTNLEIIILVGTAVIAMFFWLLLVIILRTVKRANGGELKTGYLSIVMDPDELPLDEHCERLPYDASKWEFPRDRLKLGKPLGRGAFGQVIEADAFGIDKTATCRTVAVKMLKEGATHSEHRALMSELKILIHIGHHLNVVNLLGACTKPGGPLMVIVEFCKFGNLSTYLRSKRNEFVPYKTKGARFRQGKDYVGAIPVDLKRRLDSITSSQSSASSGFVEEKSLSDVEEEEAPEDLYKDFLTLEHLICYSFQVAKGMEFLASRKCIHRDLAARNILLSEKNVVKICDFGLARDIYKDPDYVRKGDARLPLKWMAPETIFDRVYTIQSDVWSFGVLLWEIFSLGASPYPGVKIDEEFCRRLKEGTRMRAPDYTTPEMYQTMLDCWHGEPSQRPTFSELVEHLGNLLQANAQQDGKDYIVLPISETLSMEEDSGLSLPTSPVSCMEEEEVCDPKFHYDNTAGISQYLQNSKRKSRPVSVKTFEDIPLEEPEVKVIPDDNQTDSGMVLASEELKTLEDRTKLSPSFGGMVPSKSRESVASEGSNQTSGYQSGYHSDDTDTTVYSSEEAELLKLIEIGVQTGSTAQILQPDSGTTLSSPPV
T4 sequence (P00533 25-1210, species assumed): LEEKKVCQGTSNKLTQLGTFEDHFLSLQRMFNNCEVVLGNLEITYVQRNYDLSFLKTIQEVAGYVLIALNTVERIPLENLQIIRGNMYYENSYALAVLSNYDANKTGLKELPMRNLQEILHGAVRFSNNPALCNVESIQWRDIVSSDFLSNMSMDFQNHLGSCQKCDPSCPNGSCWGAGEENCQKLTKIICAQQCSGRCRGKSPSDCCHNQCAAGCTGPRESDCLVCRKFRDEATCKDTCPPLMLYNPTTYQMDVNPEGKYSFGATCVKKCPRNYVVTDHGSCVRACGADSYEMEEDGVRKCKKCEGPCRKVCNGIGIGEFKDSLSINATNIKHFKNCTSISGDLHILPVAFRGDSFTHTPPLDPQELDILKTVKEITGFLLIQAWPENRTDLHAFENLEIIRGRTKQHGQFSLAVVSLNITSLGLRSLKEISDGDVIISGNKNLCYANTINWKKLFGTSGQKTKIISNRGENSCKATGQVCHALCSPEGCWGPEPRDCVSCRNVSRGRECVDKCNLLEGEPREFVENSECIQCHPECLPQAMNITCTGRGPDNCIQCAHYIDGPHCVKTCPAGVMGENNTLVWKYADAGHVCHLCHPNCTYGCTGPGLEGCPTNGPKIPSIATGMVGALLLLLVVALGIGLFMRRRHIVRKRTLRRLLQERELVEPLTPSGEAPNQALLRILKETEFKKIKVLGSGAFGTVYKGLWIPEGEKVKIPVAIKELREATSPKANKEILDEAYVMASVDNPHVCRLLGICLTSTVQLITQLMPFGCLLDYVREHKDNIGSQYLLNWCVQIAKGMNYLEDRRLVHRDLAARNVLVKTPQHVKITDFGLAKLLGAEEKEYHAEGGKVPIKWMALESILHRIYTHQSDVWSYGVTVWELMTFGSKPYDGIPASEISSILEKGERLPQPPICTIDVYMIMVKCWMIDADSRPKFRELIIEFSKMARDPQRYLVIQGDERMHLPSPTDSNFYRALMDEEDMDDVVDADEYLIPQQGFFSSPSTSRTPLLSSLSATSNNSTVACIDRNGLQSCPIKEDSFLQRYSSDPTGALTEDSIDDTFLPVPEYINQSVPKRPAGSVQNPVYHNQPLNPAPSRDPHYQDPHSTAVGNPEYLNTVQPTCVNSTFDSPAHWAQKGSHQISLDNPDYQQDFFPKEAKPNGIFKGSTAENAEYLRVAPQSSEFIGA

Turning to `COc1cc(Nc2ncnc(N3CCCc4c(Cl)cccc43)n2)cc(OC)c1OC` [Compound 643], the pIC50 in assay [1] is < 4.98; in assay [2], < 4.98; in assay [3], < 4.98; in assay [4], > 6.03; in assay [5], 5.25 to 6.03; in [6], 5.25 to 6.03. For the same compound, the pIC50 in [7] was 5.25 to 6.03; in assay [8], < 4.98; in assay [9] it was < 4.98; in assay [10], > 6.03.

`COc1cc(Nc2ncnc(Nc3cc(-c4ccc(C(=O)N(C)C)cc4)n[nH]3)n2)cc(OC)c1OC` [Compound 993]: the pIC50 was > 6.09 in assay [1]; < 5.04 in [2]; 5.15 to 5.31 in assay [3]; 5.31 to 6.09 in assay [4]; 5.31 to 6.09 in assay [5]; 5.31 to 6.09 in [6]. Besides, the pIC50 in [7] is > 6.09; in [8] it was < 5.04; in [9], > 6.09; in assay [10] it was 5.31 to 6.09.

For the compound `COc1ccc(Nc2ncnc(NCc3ccc(C)c(Cl)c3)n2)cc1OC` [Compound 793], the pIC50 in assay [1], in [2], in [3], in assay [4], in assay [6] and in assay [7] was < 4.93 each time. Further, the pIC50 in [8], in [9] and in [10] was < 4.93 throughout.

With `COc1ccc(Nc2ncnc(N(C)C3CCN(C)CC3)n2)cc1OC` [Compound 861], the pIC50 in assay [1] is < 4.90; in assay [2], < 4.90; in assay [3], < 4.90; in [4], < 4.90; in [5], 5.01 to 5.17; in [6], < 4.90. The pIC50 in assay [7], in assay [8] and in [9] was < 4.90 in each case.

`COc1ccc(N(C)c2ncnc(Nc3ccc(OC)c(OC)c3)n2)cc1` [Compound 863]: the pIC50 in [1] is 5.18 to 5.96; in [2], < 4.91; in [3], < 4.91; in [4], > 5.96; in assay [5], 5.02 to 5.18; in [6] it was 5.18 to 5.96. For the same compound, the pIC50 in assay [7] is 5.18 to 5.96; in [8], < 4.91; in assay [9], < 4.91.

Consider `COc1ccc(Nc2ncnc(Nc3ccc4c(c3)C(=O)N(C)C4=O)n2)cc1OC` [Compound 856], for which the pIC50 in assay [1] was < 4.96; in [2], < 4.96; in assay [3], < 4.96; in assay [4] it was < 4.96; in assay [5], 5.23 to 6.01; in assay [6], < 4.96. The pIC50 in assay [7] was < 4.96; in assay [8] it was < 4.96; in assay [9] it was 5.06 to 5.23.

As for `COC(=O)c1ccc(N(C)c2ncnc(Nc3ccc(OC)c(OC)c3)n2)cc1` [Compound 864], the pIC50 in [1] is < 4.94; in assay [2] it was < 4.94; in assay [3] it was < 4.94; in assay [4] it was < 4.94; in [5] it was < 4.94; in [6], 5.22 to 5.99. Further, the pIC50 was > 5.99 in assay [7], < 4.94 in assay [8] and < 4.94 in [9].

Take `COc1cc(Nc2ncnc(-c3cccnc3N[C@H](C)c3ccccc3)n2)cc(OC)c1OC` [Compound 1110]: the pIC50 in assay [1] was > 6.06; in assay [2] it was < 5.01; in assay [3], < 5.01; in assay [4] it was 5.28 to 6.06; in assay [5], < 5.01; in [6], 5.12 to 5.28. In addition, the pIC50 in assay [7], in assay [8] and in [9] was < 5.01 each time.

`COc1cc(Nc2ncnc(Nc3cccc(Cl)c3)n2)cc(OC)c1` [Compound 723]: the pIC50 in [1] was 5.17 to 5.95; in assay [2], 5.17 to 5.95; in assay [3], 4.90 to 5.01; in [4], > 5.95; in assay [5], > 5.95; in [6], 5.17 to 5.95. For the same compound, the pIC50 in assay [7] was 5.01 to 5.17; in assay [8] it was 5.17 to 5.95; in assay [9] it was > 5.95.

As to `CN(c1ccc2c(cnn2Cc2ccccc2)c1)c1ncnc(Nc2cccc(Cn3ccnn3)c2)n1` [Compound 677], the pIC50 in [1] is 5.31 to 6.09; in assay [2], < 5.04; in [3], 5.14 to 5.31; in assay [4], > 6.09; in assay [5], > 6.09; in [6], > 6.09. The pIC50 is > 6.09 in assay [7], < 5.04 in assay [8] and 5.14 to 5.31 in [9].

Turning to `COC(=O)c1cccc(Nc2ncnc(-n3c(NCc4ccc(OC)cc4)nc4ccccc43)n2)c1` [Compound 1068], the pIC50 in assay [1] is < 5.03; in [2], < 5.03; in assay [3], < 5.03; in assay [4], < 5.03; in assay [5], 5.14 to 5.30; in assay [6], > 6.08. For the same compound, the pIC50 in [7], in assay [8] and in assay [9] was < 5.03 throughout.

Regarding `COc1ccc(Nc2ncnc(N(C)c3ccc(C(=O)O)cc3)n2)cc1OC` [Compound 860], the pIC50 is < 4.93 in assay [1]; < 4.93 in [2]; < 4.93 in [3]; < 4.93 in assay [4]; 4.93 to 5.04 in [5]; 5.04 to 5.20 in [6]. Further, the pIC50 in assay [7] was 5.20 to 5.98; in assay [8], < 4.93; in assay [9], 5.04 to 5.20.

With `COc1cc(Nc2ncnc(Nc3cc(-c4ccc(C(N)=O)cc4)n[nH]3)n2)cc(OC)c1OC` [Compound 642], the pIC50 in [1] was > 6.06; in assay [2], < 5.01; in [3], 5.28 to 6.06; in assay [4] it was 5.28 to 6.06; in [5] it was 5.28 to 6.06; in assay [6], 5.28 to 6.06. The pIC50 in assay [7] was > 6.06; in [8], < 5.01; in assay [9], > 6.06.

`COc1ccc(Nc2ncnc(N(C)c3ccc([N+](=O)[O-])cc3)n2)cc1OC` [Compound 862]: the pIC50 in assay [1] is < 4.93; in assay [2], < 4.93; in [3] it was < 4.93; in assay [4], 5.20 to 5.98; in assay [5], < 4.93; in [6] it was < 4.93. Further, the values for the pIC50 in assay [7], in assay [8] and in [9] were > 5.98, < 4.93 and < 4.93, respectively.

With `c1ccc(Cn2ncc3cc(Nc4ncnc(Nc5cccc(Cn6ccnn6)c5)n4)ccc32)cc1` [Compound 676], the pIC50 in assay [1] is 5.30 to 6.07; in assay [2] it was < 5.02; in [3], 5.30 to 6.07; in assay [4] it was > 6.07; in assay [5], > 6.07; in assay [6], 5.30 to 6.07. In addition, the results for the pIC50 in assay [7], in assay [8] and in assay [9] were 5.30 to 6.07, 5.13 to 5.30 and 5.30 to 6.07, respectively.

These data come from patent US7074789B2, “Kinase inhibitors” (Amgen Inc., priority 1999, dated 2006).
